Measured values as given in patent publication US20200361895A1, “NOVEL SULFONAMIDE CARBOXAMIDE COMPOUNDS” (Inflazome Limited, priority 2017, published 2020).
Where a name gives a salt, the structure may show the parent alone.

Tests used:
NLRP3 [1] = molecular target: T1, NLRP3 (Homo sapiens, UniProt Q96P20); assay: THP-1 cells pyroptosis assay (LPS + nigericin, resazurin readout; THP IC50); type: cell-based; design: Seed THP-1 cells (25,000 cells/well) containing 1.0 μg/ml LPS in 40 μl of RPMI medium; host or cells: THP-1 cells
T1 sequence (Q96P20 whole entry): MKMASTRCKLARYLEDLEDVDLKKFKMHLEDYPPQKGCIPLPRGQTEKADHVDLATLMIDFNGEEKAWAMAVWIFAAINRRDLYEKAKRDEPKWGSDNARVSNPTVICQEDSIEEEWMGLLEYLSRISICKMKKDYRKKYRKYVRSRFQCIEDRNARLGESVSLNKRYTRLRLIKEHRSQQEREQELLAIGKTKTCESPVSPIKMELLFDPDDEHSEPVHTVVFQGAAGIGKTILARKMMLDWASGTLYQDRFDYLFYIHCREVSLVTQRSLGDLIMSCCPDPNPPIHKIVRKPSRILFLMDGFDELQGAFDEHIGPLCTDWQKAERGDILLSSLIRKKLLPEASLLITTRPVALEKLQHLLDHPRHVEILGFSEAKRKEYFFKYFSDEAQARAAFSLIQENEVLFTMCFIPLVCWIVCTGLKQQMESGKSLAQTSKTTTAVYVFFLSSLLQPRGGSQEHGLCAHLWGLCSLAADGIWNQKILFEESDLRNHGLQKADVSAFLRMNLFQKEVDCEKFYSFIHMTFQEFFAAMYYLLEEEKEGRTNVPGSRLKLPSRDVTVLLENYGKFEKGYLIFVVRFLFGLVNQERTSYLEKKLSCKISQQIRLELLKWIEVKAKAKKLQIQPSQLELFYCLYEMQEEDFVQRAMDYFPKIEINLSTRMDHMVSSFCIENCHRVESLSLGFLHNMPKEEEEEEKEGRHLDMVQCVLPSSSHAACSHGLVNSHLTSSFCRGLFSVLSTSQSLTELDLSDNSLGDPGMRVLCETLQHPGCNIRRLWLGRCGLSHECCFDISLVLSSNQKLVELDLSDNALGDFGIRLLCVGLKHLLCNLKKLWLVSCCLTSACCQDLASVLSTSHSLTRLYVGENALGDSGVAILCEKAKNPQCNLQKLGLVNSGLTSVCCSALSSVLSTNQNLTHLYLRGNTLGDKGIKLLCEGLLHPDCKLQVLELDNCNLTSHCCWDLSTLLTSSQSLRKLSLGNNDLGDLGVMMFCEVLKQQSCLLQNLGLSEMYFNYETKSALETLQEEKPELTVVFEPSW
Method in brief: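 Human THP-1 cells, 25,000/well in serum-free RPMI with 1 μg/ml LPS, treated 3 hrs at 37° C with compound (8-point half-log, 10 μM top, 0.1% DMSO), then 5 μM nigericin 1 hr. Viability by 100 μM resazurin fluorescence after 1-2 hrs; IC50 by 4-parameter fit.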

NLRP3 [2] = molecular target: T1, NLRP3; assay: Human whole blood IL1β release assay (LPS + nigericin, AlphaLisa IL-1β; HWB IC50); type: cell-based; design: Human whole blood in Li-heparin tubes was obtained from healthy donors from a volunteer donor panel; from tissue; host or cells: human whole blood from healthy donors; details: IL-1β release
Method in brief: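 Donor Li-heparin whole blood primed with 1 μg/ml LPS, given compound (8-point half-log series, 10 μM top; DMSO 0.1% final) for 3 h at 37 °C, then nigericin 10 μM final for 1 h. Supernatant IL-1β measured by AlphaLisa; IC50 from 4-parameter variable-slope fit.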

IC50 (NLRP3 [1]) [nM] | IC50 (NLRP3 [2]) [nM] | SMILES
≤ 500 | ≤ 500 | COc1cc(-c2ccc3c(c2NC(=O)NS(=O)(=O)c2ccn(C4CCC4)n2)CCC3)ccn1 [Example 244, 1-Cyclobutyl-N-((5-(2-methoxypyridin-4-yl)-2,3-dihydro-1H-inden-4-yl)carbamoyl)-1H-pyrazole-3-sulfonamide, sodium salt]
≤ 500 | ≤ 500 | Cc1cc(-c2ccc3c(c2NC(=O)NS(=O)(=O)c2ccn(C(C)C)n2)CCC3)ccn1 [Example 245, 1-Isopropyl-N-((5-(2-methylpyridin-4-yl)-2,3-dihydro-1H-inden-4-yl)carbamoyl)-1H-pyrazole-3-sulfonamide, sodium salt]
≤ 500 | ≤ 1000 | COc1cc(-c2ccc3c(c2NC(=O)NS(=O)(=O)c2cnn(C(C)C)n2)CCC3)ccn1 [Example 246, 2-Isopropyl-N-((5-(2-methoxypyridin-4-yl)-2,3-dihydro-1H-inden-4-yl)carbamoyl)-2H-1,2,3-triazole-4-sulfonamide, sodium salt]
≤ 500 | ≤ 500 | COc1cc(-c2ccc3c(c2NC(=O)NS(=O)(=O)c2ccn(C4(CN(C)C)CCC4)n2)CCC3)ccn1 [Example 247, 1-(1-((Dimethylamino)methyl)cyclobutyl)-N-((5-(2-methoxypyridin-4-yl)-2,3-dihydro-1H-inden-4-yl)carbamoyl)-1H-pyrazole-3-sulfonamide, sodium salt]
≤ 500 | ≤ 500 | COc1cc(-c2ccc3c(c2NC(=O)NS(=O)(=O)c2ccn(C4CC4)n2)CCO3)ccn1 [Example 248, 1-Cyclopropyl-N-((5-(2-methoxypyridin-4-3-sulfonamide, sodium salt]
≤ 500 | ≤ 500 | COc1cc(-c2ccc3c(c2NC(=O)NS(=O)(=O)c2ccn(CCF)n2)CCC3)ccn1 [Example 249, 1-(2-Fluoroethyl)-N-((5-(2-methoxypyridin-4-yl)-2,3-dihydro-1H-inden-4-yl)carbamoyl)-1H-pyrazole-3-sulfonamide, sodium salt]
≤ 500 | ≤ 500 | COc1cc(-c2ccc3c(c2NC(=O)NS(=O)(=O)c2cnn(C(C)C)c2)CCC3)ccn1 [Example 250, 1-Isopropyl-N-((5-(2-methoxypyridin-4-yl)-2,3-dihydro-1H-inden-4-yl)carbamoyl)-1H-pyrazole-4-sulfonamide, sodium salt]
≤ 500 | ≤ 500 | COc1cc(-c2ccc3c(c2NC(=O)NS(=O)(=O)c2ccn(C(C)(C)C)n2)CCC3)ccn1 [Example 252, 1-(tert-Butyl)-N-((5-(2-methoxypyridin-4-yl)-2,3-dihydro-1H-inden-4-yl)carbamoyl)-1H-pyrazole-3-sulfonamide, sodium salt]
≤ 1000 | ≤ 5000 | CNc1cc(-c2ccc3c(c2NC(=O)NS(=O)(=O)c2ccn(C4CC4)n2)CCC3)ccn1 [Example 253, 1-Cyclopropyl-N-((5-(2-(methylamino)pyridin-4-yl)-2,3-dihydro-1H-inden-4-yl)carbamoyl)-1H-pyrazole-3-sulfonamide]
≤ 500 | ≤ 500 | COc1cc(-c2ccc3c(c2NC(=O)NS(=O)(=O)c2ccn(C4CC4)n2)CCC3)c(F)cn1 [Example 255, 1-Cyclopropyl-N-((5-(5-fluoro-2-methoxypyridin-4-yl)-2,3-dihydro-1H-inden-4-yl)carbamoyl)-1H-pyrazole-3-sulfonamide, sodium salt]
≤ 500 | ≤ 500 | COc1cc(-c2ccc3c(c2NC(=O)NS(=O)(=O)c2ccn(C4CCC4)n2)CCO3)ccn1 [Example 257, 1-Cyclobutyl-N-((5-(2-methoxypyridin-4-yl)-2,3-dihydrobenzofuran-4-yl)carbamoyl)-1H-pyrazole-3-sulfonamide, sodium salt]
≤ 500 | ≤ 500 | COc1cc(-c2ccc3c(c2NC(=O)NS(=O)(=O)c2ccn(C(C)(C)CN4CCC4)n2)CCO3)ccn1 [Example 258, 1-(1-(Azetidin-1-yl)-2-rnethylpropan-2-yl)-N-((5-(2-methoxypyridin-4-yl)-2,3-dihydrobenzofuran-4-yl)carbamoyl)-1H-pyrazole-3-sulfonamide, sodium salt]
≤ 500 | ≤ 500 | COc1cc(-c2ccc3c(c2NC(=O)NS(=O)(=O)c2ccn(C(C)(C)C)n2)CCO3)ccn1 [Example 259, 1-(tert-Butyl)-N-((5-(2-methoxypyridin-4-yl)-2,3-dihydrobenzofuran-4-yl)carbamoyl)-1H-pyrazole-3-sulfonamide, sodium salt]
≤ 500 | ≤ 5000 | CC(C)n1ncc(S(=O)(=O)NC(=O)Nc2c(-c3ccnc(C#N)c3)ccc3c2CCC3)n1 [Example 260, N-((5-(2-Cyanopyridin-4-yl)-2,3-dihydro-1H-inden-4-yl)carbamoyl)-2-isopropyl-2H-1,2,3-triazole-4-sulfonamide, sodium salt]
≤ 500 | ≤ 5000 | O=C(Nc1c(-c2ccnc(OC3CC3)c2)ccc2c1CCC2)NS(=O)(=O)c1ccn(C2CC2)n1 [Example 261, N-((5-(2-Cyclopropoxypyridin-4-yl)-2,3-dihydro-1H-inden-4-yl)carbamoyl)-1-cyclopropyl-1H-pyrazole-3-sulfonamide, sodium salt]
≤ 500 | ≤ 1000 | O=C(Nc1c(-c2ccnc(OC(F)F)c2)ccc2c1CCC2)NS(=O)(=O)c1ccn(C2CC2)n1 [Example 262, 1-Cyclopropyl-N-((5-(2-(difluoromethoxy)pyridin-4-yl)-2,3-dihydro-1H-inden-4-yl)carbamoyl)-1H-pyrazole-3-sulfonamide, sodium salt]
≤ 500 | ≤ 500 | COc1cc(-c2ccc3c(c2NC(=O)NS(=O)(=O)c2ccn(CC4CC4)n2)CCC3)ccn1 [Example 263, 1-(Cyclopropylmethyl)-N-((5-(2-methoxypyridin-4-yl)-2,3-dihydro-1H-inden-4-yl)carbamoyl)-1H-pyrazole-3-sulfonamide, sodium salt]
≤ 500 | ≤ 500 | CC(C)(C)n1ccc(S(=O)(=O)NC(=O)Nc2c(-c3ccnc(C#N)c3)ccc3c2CCC3)n1 [Example 264, 1-(tert-Butyl)-N-((5-(2-cyanopyridin-4-yl)-2,3-dihydro-1H-inden-4-yl)carbamoyl)-1H-pyrazole-3-sulfonamide, sodium salt]
≤ 500 | ≤ 500 | COc1cc(-c2ccc3c(c2NC(=O)NS(=O)(=O)c2ccn(C4CC4)n2)CCO3)c(F)cn1 [Example 265, 1-Cyclopropyl-N-((5-(5-fluoro-2-methoxypyridin-4-yl)-2,3-dihydrobenzofuran-4-yl)carbamoyl)-1H-pyrazole-3-sulfonamide, sodium salt]
≤ 500 | ≤ 1000 | O=C(Nc1c(-c2ccnc(OC3CC3)c2)ccc2c1CCO2)NS(=O)(=O)c1ccn(C2CCC2)n1 [Example 266, 1-Cyclobutyl-N-((5-(2-cyclopropoxypyridin-4-yl)-2,3-dihydrobenzofuran-4-yl)carbamoyl)-1H-pyrazole-3-sulfonamide, sodium salt]
≤ 500 | ≤ 500 | COc1cc(-c2ccc3c(c2NC(=O)NS(=O)(=O)c2ccn(CC4CC4)n2)CCO3)ccn1 [Example 267, 1-(Cyclopropylmethyl)-N-((5-(2-methoxypyridin-4-yl)-2,3-dihydrobenzofuran-4-yl)carbamoyl)-1H-pyrazole-3-sulfonamide, sodium salt]
